Reference: patent US10111854B2, “Synthesis and use of amine-containing flavonoids as potent anti-leishmanial agents” (The Hong Kong Polytechnic University, priority 2014, dated 2018)

How the values were obtained:
[1] = test system: L. amazonensis LV78 amastigotes; experiment: Anti-amastigote activity in infected PEM, L. amazonensis LV78; assay type: cell-based; details: for Selective index (a)/(b): IC50 RAW264.7 over IC50 L. amazonensis LV78 amastigotes; for IC50: Leishmania amazonensis, 72 h, infected PEM, 3 days, Giemsa
Procedure, shortened: (§1)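 Macrophages elicited from mouse peritoneum were allowed to adhere overnight, then infected with late-log promastigotes at a 20:1 ratio at 37 °C. After removal of non-internalized parasites, cells were incubated with compound for 3 days. Amastigote burden was scored microscopically after Giemsa staining.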

[2] = test system: L. donovani HU3 amastigotes; experiment: Anti-amastigote activity in infected PEM, L. donovani HU3; assay type: cell-based; details: for Selective index (a)/(b): IC50 RAW264.7 over IC50 L. donovani HU3 amastigotes; for IC50: Leishmania donovani, 72 h, infected PEM, 3 days, Giemsa, SSG-sensitive
Procedure, shortened: as §1

[3] = test system: RAW264.7 cells; experiment: Reactive oxygen species (ROS) level, DCFDA, RAW264.7; assay type: cell-based, murine; details: for ROS induction in macrophages: RAW264.7
Procedure, shortened: (§2)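 RAW264.7 macrophages or L. amazonensis promastigotes pre-loaded 1 h with 10 μM DCFDA (37 °C and 27 °C respectively), washed, then exposed to compounds (10 or 30 μM in macrophages; 30 μM in promastigotes). DCF fluorescence (ex 485 nm) read at 2–72 h, background from unstained cells subtracted.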

[4] = Cytotoxicity, peritoneal elicited macrophages (PEM); assay type: cell-based, mouse; details: mouse, Cytotoxicity IC50, PEM
[5] = test system: L. donovani Ld39 promastigotes; experiment: Anti-promastigote activity (MTS assay), L. donovani Ld39; assay type: cell-based; details: Leishmania donovani, 72 hours
Procedure, shortened: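 Promastigotes (1×10^5 per well) in Schneider's medium pH 6.9 with 10% FBS, exposed to serial compound concentrations for 72 h at 27 °C. Viability by MTS/PMS reduction over 4 h, OD 490 nm; IC50 derived.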

[6] = test system: L. donovani Ld39 amastigotes (SSG-resistant); experiment: Anti-amastigote activity in infected PEM, L. donovani Ld39; assay type: cell-based; details: for Selective index (a)/(c): IC50 RAW264.7 over IC50 L. donovani Ld39 amastigotes; for IC50: Leishmania donovani, 72 h, infected PEM, 3 days, Giemsa, SSG-resistant
Procedure, shortened: as §1

[7] = Cytotoxicity, L929 fibroblasts; assay type: cell-based, mouse; details: mouse
Procedure: (§3) IC50 values of known antileishmanials and the amine-containing flavonoid monomers of the present invention to promastigotes (L. amazonensis LV78, L major FV1, L. donovani HU3, L. donovani 39), macrophages (Raw 264.7 and PEM) and mouse fibroblast (L929) were determined. The anti-promastigotes activities and cytotoxicity of the amine-containing flavonoid monomers of the invention are shown in Table 1.

[8] = test system: L. amazonensis LV78 promastigotes; experiment: Reactive oxygen species (ROS) level, DCFDA, promastigotes; assay type: cell-based; details: 30 μM
Procedure, shortened: as §2

[9] = test system: promastigotes (L. amazonensis LV78, L major FV1, L. donovani HU3, L. donovani 39); experiment: Anti-promastigote activity, strain not given; assay type: cell-based; details: Leishmania amazonensis; strain not specified; read-out: IC50 against promastigotes
Procedure: Anti-promastigote activity was determined according to previous procedures (1) by Cell Titer 96® Aqueous Assay (Promega) that employed a tetrazolium compound. Promastigotes were seeded into 96-well flat bottom microtiter plate at 1×10^5 cells per well in a final volume of 100 μL medium and incubated with a series of concentrations of synthetic FM. Parasites were incubated at 27° C. for 72 hours. After 72 hours of incubation, 10 μL of MTS:PMS mixture [MTS:2-(4,5-Dimethylthiazol-2-yl-)-5-[3-(carboxymethoxy)phenyl]-2-(4-sulfophenyl)-2H-tetrazolium); PMS: phenazine methosulfate both purchased from Sigma] was added into each well of microtiter plate. The plate was then incubated at 27° C. for 4 hours for color development. After 4 hours of incubation, the OD values were determined at 490 nm using automatic microtiter plate reader (Bio-Rad).
as §3

| IC50 [1] [µM] | IC50 [2] [µM] | Compound | Selective index (a)/(b) [1] | Selective index (a)/(b) [2] | RAW264.7 ROS Level, Relative fold (RF) ([3]; 10 μM, 2 hr) [fold] | RAW264.7 ROS Level, Relative fold (RF) ([3]; 10 μM, 4 hr) [fold] | RAW264.7 ROS Level, Relative fold (RF) ([3]; 10 μM, 6 hr) [fold] | RAW264.7 ROS Level, Relative fold (RF) ([3]; 10 μM, 8 hr) [fold] | RAW264.7 ROS Level, Relative fold (RF) ([3]; 10 μM, 20 hr) [fold] | ROS induction in macrophages ([3]; 10 μM) | RAW264.7 ROS Level, Relative fold (RF) ([3]; 30 μM, 2 hr) [fold] | RAW264.7 ROS Level, Relative fold (RF) ([3]; 30 μM, 4 hr) [fold] | RAW264.7 ROS Level, Relative fold (RF) ([3]; 30 μM, 6 hr) [fold] | RAW264.7 ROS Level, Relative fold (RF) ([3]; 30 μM, 20 hr) [fold] | RAW264.7 ROS Level, Relative fold (RF) ([3]; 30 μM, 46 hr) [fold] | IC50 [4] [µM] | IC50 [5] [µM] | Selective index (a)/(c) [6] | IC50 [6] [µM] | IC50 [7] [µM] | also measured |
| --- | --- | --- | --- | --- | --- | --- | --- | --- | --- | --- | --- | --- | --- | --- | --- | --- | --- | --- | --- | --- | --- |
| 0.43 | 0.2 ± 0.06 | O=c1cc(-c2ccc(OCCOCCN(CCOCCOc3ccc(-c4cc(=O)c5ccccc5o4)cc3)Cc3ccncc3)cc2)oc2ccccc12 [compound 39] | 232.6 | >500 | 0.9 | 0.9 | 0.9 | 0.8 | 0.9 | No ROS induction | 1.3 | 1.4 | 1.3 | 1.3 | 1.4 | > 100 | 0.21 ± 0.06 | 47.6 | 0.21 ± 0.06 | 26.4 | L. amazon LV78 promastigote ROS Level, Relative fold (RF) ([8]; 2 hr): 1.3 fold; L. amazon LV78 promastigote ROS Level, Relative fold (RF) ([8]; 4 hr): 1.3 fold; L. amazon LV78 promastigote ROS Level, Relative fold (RF) ([8]; 6 hr): 1.3 fold; L. amazon LV78 promastigote ROS Level, Relative fold (RF) ([8]; 20 hr): 1.6 fold; L. amazon LV78 promastigote ROS Level, Relative fold (RF) ([8]; 46 hr): 1.4 fold; L. amazon LV78 promastigote ROS Level, Relative fold (RF) ([8]; 72 hr): 1.6 fold |
| 0.3 | 0.4 | O=c1cc(-c2ccc(OCCOCCN(Cc3ccccn3)Cc3ccccn3)cc2)oc2ccccc12 [FM09, 2-(4-(2-(2-(bis(pyridin-2-ylmethyl)amino)ethoxy)ethoxy)phenyl)-4H-chromen-4-one] | 63 | 47.3 | 1.1 | 1.1 | 1.0 | 1.0 | 1.1 | No ROS induction | 1.3 | 1.4 | 1.3 | 1.4 | 2.1 | 22 | 0.5 ± 0.1 | >51.1 | < 0.37 | > 33 | IC50 [9]: < 5 µM; L. amazon LV78 promastigote ROS Level, Relative fold (RF) ([8]; 2 hr): 2.0 fold; L. amazon LV78 promastigote ROS Level, Relative fold (RF) ([8]; 4 hr): 2.1 fold; L. amazon LV78 promastigote ROS Level, Relative fold (RF) ([8]; 6 hr): 2.3 fold; L. amazon LV78 promastigote ROS Level, Relative fold (RF) ([8]; 20 hr): 3.2 fold; L. amazon LV78 promastigote ROS Level, Relative fold (RF) ([8]; 46 hr): 4.3 fold; L. amazon LV78 promastigote ROS Level, Relative fold (RF) ([8]; 72 hr): 6.2 fold |
